{"source": "paper PMC3753236", "about": "“Glucocorticosteroids in Nano-Sterically Stabilized Liposomes Are Efficacious for Elimination of the Acute Symptoms of Experimental Cerebral Malaria” (PLoS ONE, 2013)", "key": {"[1]": {"system": "Plasmodium berghei ANKA (PbAus)", "test": "Early treatment of ECM, PbAus-inoculated C57Bl/6 mice (with sequential artemisone)", "conditions": "for Death: ECM (number of mice) / Death: Severe anemic malaria (number of mice) / Death: Toxicity (number of mice) / Death: ECM (%) / Death: Severe anemic malaria (%) / Average clinical score (±SEM): days 3, 5, 7, 9 p.i.; for Death: ECM (%) / Death: Severe anemic malaria (%): excludes acute toxicity deaths; for Average clinical score (±SEM): 11 days post-inoculation; for % survival / Group score: 20 mg/kg (Fig 6 legend)", "protocol": "(§1) Plasmodium berghei ANKA (PbA; PbA MRA-311, CDC, Atlanta, GA, USA) was maintained in vivo by serial transfer of parasitized erythrocytes (PE) from infected to naïve mice. Experiments were also performed using a second strain of PbA, similarly maintained, and designated PbAus in the text (courtesy of Prof. G. Grau, University of Sydney, Australia).\n(§2) Parasitemia was monitored by thin blood smears prepared from tail blood. These were stained with a 25% Giemsa solution, examined under a light microscope, and parasitemia determined as the percent of infected red blood cells per 10,000 erythrocytes. Disease severity was determined according to scoring of neurological symptoms and changes in weight and temperature, as previously described […] Parasitemias above 20% and the absence of neurological symptoms indicated severe anemic malaria.\n(§3) For early ECM treatment, injections were given on days 3, 5, 7, and 9 p.i; for late treatment, treatment was given every other day, starting on day 5 p.i. for a total of at least two injections. Infected, non-treated control mice were injected with 5% dextrose or empty nSSL. Clinical signs and parasitemias were monitored and disease severity scored as described […] At each time-point, at least 3 mice from each group were chosen at random, deeply anesthetized, and brains were removed following intracardial perfusion (using saline, if organs were destined for real-time (rt)PCR analysis, or saline/formalin, if organs were destined for histopathological analysis). Organs destined for rtPCR analysis were snap-frozen in liquid nitrogen and stored at −80°C until use. Organs destined for immunohistology were immediately immersed in cryoprotectant solution (see below)."}, "[2]": {"system": "Plasmodium berghei ANKA (PbAus)", "test": "Late-stage treatment of ECM followed by artemisone, PbAus-infected C57Bl/6 mice", "protocol": "as §1, §2, §3"}, "[3]": {"system": "inflammation-related genes (CCL5, CXCL9, CXCL10, ICAM-1, IFNγ, IL-4)", "test": "Brain expression of inflammation-related genes by qPCR", "format": "in vivo, C57Bl/6 mice", "conditions": "day 9 p.i., treatment days 3, 5, 7, 9 p.i., relative to non-infected mice, normalized to HPRT", "protocol": "For total RNA extraction, samples were homogenized in Tri-reagent (Sigma) and the homogenate separated into aqueous and organic phases by chloroform addition and centrifugation. RNA was precipitated from the aqueous phase by addition of isopropanol, washed with ethanol, and solubilized in UPW.\ncDNA synthesis was performed using a High Capacity cDNA Reverse Transcription kit (Applied Biosystems, Warrington, UK). cDNA was amplified from 1 µg RNA from each sample with the addition of 2 µl Multiscribe™ reverse transcriptase (RT), 2 µl RNAse inhibitor, 4 µl random primers, 4 µl RT buffer, and 1.6 µl dNTP's according to the manufacturer's instructions for first-strand cDNA synthesis. UPW was added for a final sample volume of 20 µl. cDNA samples were stored at −20°C.\nReal-time transcription-polymerase chain reaction (rtPCR) was carried out using Applied Biosystems' 9800 Fast Thermal Cycler. The reaction mix for rtPCR analysis consisted of 1 µl cDNA, 300 nM forward (f) and reverse (r) primers (Syntezza, Jerusalem, Israel), and 7.5 µl manufactured master mix buffer containing nucleotides, Taq polymerase, and SYBR Green (Applied Biosystems) in a total volume of 15 µl. Gene amplification included one stage of 10 min at 95°C followed by 40 cycles of a two-step loop: 20 s at 95°C, and 1 min at 60°C. The fold-change in gene expression was normalized to the endogenous gene hypoxanthine phosphoribosyltransferase (HPRT). […] Results were considered significant if the observed fold-change was at least ×2 relative to non-infected mice. Primer sequences (5′-3′) were as follows: CCL5: […] (f), […] (r); ICAM-1: […] (f); […] (r); IFN-γ: […] (f), […] (r); IL-4: […] (f), […] (r); CXCL9: […] (f), […] (r); CXCL10: […] (f), […] (f), […] (r)."}, "[4]": {"system": "PbAus-infected C57Bl/6 mice", "test": "Brain hemorrhages, H&E staining", "format": "in vivo", "conditions": "treatment days 3, 5, 7, 9 p.i.", "protocol": "H&E staining was performed by incubation of slides in Sigma's Accustain hematoxylin solution followed by staining in eosin solution (2% eosin, 1% phloxine and 0.5% acetic acid in 95% ethanol), and mounting in Hydromount (National Diagnostics, Cherry Hill, NJ, USA)."}, "microglia": {"system": "microglia", "test": "Microglial activation, IBA-1 immunohistology", "format": "in vivo, C57Bl/6 mice", "conditions": "IBA-1, normalized to non-infected mice", "protocol": "Sections were thaw-mounted onto on poly-L-lysine-coated slides and stored at -80°C until use.\nSlides were thawed by sequential incubation at −20°C and 5°C (10 minutes at each temperature) and incubated in blocking solution consisting of 20% of 5% BSA and 80% of 5% NGS, in a moist environment at room temperature (RT). After one hour the blocking solution was removed and sections incubated overnight at 5°C with primary antibody diluted 1∶200 in blocking solution. Microglia were stained using rabbit anti-mouse ionized calcium binding adaptor molecule 1 (IBA-1) (Wako Chemicals, Richmond, VA, USA); astrocytes were stained using rabbit anti-bovine glial fibrillary acidic protein (GFAP) (cross-reactive to mouse; LifeSpan Biosciences, Seattle, WA, USA). After washing in PBS, slides were incubated for one hour at RT with secondary antibody, Cy3-AffiniPure donkey anti-rabbit IgG H+L (diluted 1∶200 in PBS; Jackson Immunoresearch Laboratories, West Grove, PA, USA), followed by an additional wash. […] At least three sections per brain (6 fields each) were examined, and the total number of astrocytes and microglia counted. […] Images were visualized and analyzed with ImagePro analysis software: quantification of relative fluorescence was performed using the integrated optical density (IOD) parameter. […]"}, "[5]": {"conditions": "day 5 p.i., treatment days 3, 5, 7, 9 p.i."}, "[6]": {"conditions": "day 9 p.i., treatment days 3, 5, 7, 9 p.i."}}, "data": [{"smiles": "C[C@H]1C[C@H]2[C@@H]3CCC4=CC(=O)C=C[C@]4(C)[C@@]3(F)[C@@H](O)C[C@]2(C)[C@@]1(O)C(=O)COC(=O)CCC(=O)O", "note": "[BMS, β-methasone hemisuccinate]", "values": [{"measurement": "Death: ECM (number of mice)", "setting": "[1]; 5 mg/kg i.v.", "result": 5}, {"measurement": "Death: Severe anemic malaria (number of mice)", "setting": "[1]; 5 mg/kg i.v.", "result": 1}, {"measurement": "Death: Toxicity (number of mice)", "setting": "[1]; 5 mg/kg i.v.", "result": 3}, {"measurement": "Death: ECM (%)", "setting": "[1]; 5 mg/kg i.v.", "result": "(83%)"}, {"measurement": "Death: Severe anemic malaria (%)", "setting": "[1]; 5 mg/kg i.v.", "result": "(16%)"}, {"measurement": "Death: ECM (number of mice)", "setting": "[1]; 10 mg/kg i.v.", "result": 9}, {"measurement": "Death: Severe anemic malaria (number of mice)", "setting": "[1]; 10 mg/kg i.v.", "result": 1}, {"measurement": "Death: Toxicity (number of mice)", "setting": "[1]; 10 mg/kg i.v.", "result": 3}, {"measurement": "Death: ECM (%)", "setting": "[1]; 10 mg/kg i.v.", "result": "(90%)"}, {"measurement": "Death: Severe anemic malaria (%)", "setting": "[1]; 10 mg/kg i.v.", "result": "(10%)"}, {"measurement": "Average clinical score (±SEM)", "setting": "[1]; 10 mg/kg", "result": "7.5±1.6"}, {"measurement": "Death: ECM (number of mice)", "setting": "[1]; 20 mg/kg i.v.", "result": 9}, {"measurement": "Death: Severe anemic malaria (number of mice)", "setting": "[1]; 20 mg/kg i.v.", "result": 3}, {"measurement": "Death: Toxicity (number of mice)", "setting": "[1]; 20 mg/kg i.v.", "result": 5}, {"measurement": "Death: ECM (%)", "setting": "[1]; 20 mg/kg i.v.", "result": "(75%)"}, {"measurement": "Death: Severe anemic malaria (%)", "setting": "[1]; 20 mg/kg i.v.", "result": "(25%)"}, {"measurement": "Survival rate on day 13 p.i., at the end of the cerebral phase", "setting": "[1]; 20 mg/kg on days 3, 5, 7, 9 p.i., listed as free BMS", "result": 12, "unit": "%"}, {"measurement": "Average clinical score (±SEM)", "setting": "[1]; 20 mg/kg", "result": "12.3±2.4"}, {"measurement": "% survival", "setting": "[1]; [5]", "result": 100, "unit": "%"}, {"measurement": "Group score", "setting": "[1]; [5]", "result": "1.3±1.1"}, {"measurement": "% survival", "setting": "[1]; [6]", "result": 47, "unit": "%"}, {"measurement": "Group score", "setting": "[1]; [6]", "result": "8.4 ±1.7"}, {"measurement": "Incidence of ECM", "setting": "[1]; treatment days 3, 5, 7, 9 p.i., as quoted with the gene expression study", "result": 75, "unit": "%"}, {"measurement": "Mice that died of acute toxicity", "setting": "[2]; 20 mg/kg on days 5, 7, 9 p.i., upon second or third injection", "result": "6/10"}, {"measurement": "Average clinical score on day 7 p.i.", "setting": "[2]; 20 mg/kg, treatment started day 5 p.i.", "result": "4.2±2.2"}, {"measurement": "CCL5 relative expression ± SEM", "setting": "[3]", "result": "45.7±7.6"}, {"measurement": "CXCL9 relative expression ± SEM", "setting": "[3]", "result": "39.3±11.1"}, {"measurement": "CXCL10 relative expression ± SEM", "setting": "[3]", "result": "18.2±2.4"}, {"measurement": "ICAM-1 relative expression ± SEM", "setting": "[3]", "result": "3.3±0.7"}, {"measurement": "IFNγ relative expression ± SEM", "setting": "[3]", "result": "105.1±37.7"}, {"measurement": "IL-4 relative expression ± SEM", "setting": "[3]", "result": "1.5±0.3"}, {"measurement": "Number of hemorrhages", "setting": "[4]; day 5 p.i.", "result": "9±1"}, {"measurement": "Number of hemorrhages", "setting": "[4]; day 9 p.i.", "result": "9±2"}, {"measurement": "Microglia, normalized IOD", "setting": "microglia; day 5 p.i.", "result": "12±1"}, {"measurement": "Microglia, normalized IOD", "setting": "microglia; day 9 p.i.", "result": "10±0.05"}]}]}
